Consider eleven molecules from patent publication US10869903B2, “Probiotic and prebiotic compositions, and methods of use thereof for treatment and prevention of graft versus host disease” (Evelo Biosciences, Inc., priority 2014, dated 2020).

In one data set the test system is tumors. The following applies: oral administration; anti-PD-1 and anti-CTLA-4 antibody therapies; cited from earlier work.
For data set [1], the system named is microbiome of the gut and the vagina. Set-up: species or system C57Bl/6 female mice. The following applies: mouse, in vivo. The source says:
The trillions of organisms forming the microbiome function as an organ system interconnected throughout the body. The possibility that modification of the microbiome in a given physical location may influence the microbiome at other sites in the body (distal augmentation) was investigated. Seven week old C57Bl/6 female mice were acclimatized for 7 days prior to the start of the study by daily handling and shuffling between cages. All mice were housed at three mice per cage in individually vented cages (Thoren, Hazleton, Pa.). At day 0, baseline fresh fecal pellets, and vaginal lavages with 100 μL of sterile double-distilled water were collected and immediately frozen at −80° C. for microbiome analysis. […] Water alone is not expected to influence the microbiome and acted as a negative control. […] The impact of oral vancomycin is therefore expected to be limited to the gastrointestinal tract such that microbiome changes elsewhere in the body (e.g. vagina) would be attributable to distal augmentation. […]
Isolation and sequencing of microbial DNA from the stool and vaginal samples was performed by DNA Genotek (Ottawa, ON, Canada). The V3-V4 region of the 16S ribosomal subunit was amplified with custom PCR primers and sequenced on an Illumina MiSeq to a minimum acceptable read depth of 25,000 sequences per sample. […]

Data set [2] concerns human peripheral blood mononuclear cells (PBMCs). Nature of the data set: Cytokine release by human PBMCs incubated with commensal bacteria, alone or combined with E. faecalis (Luminex). The data set is classed as cell-based. The following applies: for anti-inflammatory profile for a Th-1-driven condition such as GVHD: overall assessment. The method, then:
An in vitro system was developed to efficiently test the inflammatory and immunomodulatory properties of different human commensal bacteria on human peripheral blood mononuclear cells (PBMCs). Experiments were carried out with 21 bacterial candidates to profile their anti-inflammatory properties against human PBMCs. The innate properties of bacteria alone on human PBMCs were tested as well as their ability to counteract the pro-inflammatory activity of Enterococcus feacalis.
Human PBMCs were isolated from fresh blood by density-gradient centrifugation using Ficoll (1-4). […] The results are presented in FIGS. 2-5 for all time points. […] The 24 h results are shown as a composite in FIG. 6 and with statistical analysis on individual cytokines in FIGS. 7-10. The results represent the properties of each bacterial species against human PBMCs and their ability to counteract inflammatory stimulation with E. faecalis in vitro.

The subject of a further data set is Lactobacillus johnsonii. In kind it is cell-based.
The subject of a further data set is blautia. The experiment in a line: Sugar fermentation in media lacking glucose (pH and optical density). In kind it is cell-based.
Data set [3] concerns Tregs in the large intestine. The following applies: mouse, in vivo; cited from earlier work.
For data set [4] the following is noted: human, in vivo. Here is the method:
D-xylose is a carbon source generally preferred by anaerobic bacteria. […] A parallel, double-blind, 5 cohort escalation food safety study was conducted to examine D-xylose in normal human volunteers. The study was a double-blind, single-center, parallel group study designed to evaluate the tolerability and potential microbiome changes induced by ingestion of D-xylose at 5 different amounts in healthy, adult volunteers enrolled at 1 study center in the United States (US).
Subjects were screened for eligibility within 21 days prior to the first planned ingestion of study sweetener on Day 1 (Baseline). […]
Subjects returned to the study center weekly on Days 8, 15, 22, and 28 for ingestion, tolerability, and compliance evaluations. Safety was evaluated on a continual basis through adverse events (AE) monitoring, clinical laboratory measurements, vital sign monitoring, physical examinations, electrocardiograms (ECGs), telephone follow-up, and electronic subject ingestion diaries. Stool was collected pre-ingestion and at pre-specified time points, and post-ingestion samples were evaluated for changes in the gut microbiome compared with Baseline for all subjects. […]
Safety was evaluated on a continual basis through AE monitoring, clinical laboratory measurements, vital sign monitoring, physical examinations, ECGs, telephone follow-up, and electronic subject ingestion diaries. […]

Data set [5] has as its system anaerobic commensal bacteria. The experiment in a line: Carbon source usage profiling on Biolog PM01 and PM02A plates (OD 750 nm). The data set is classed as cell-based.
In the next data set the test system is GVHD. Set-up: species or system mice. The following applies: mouse, in vivo.
Data set [6] is described as follows: Normal human volunteer study of D-xylose: serum and urine pharmacokinetics. The data set is classed as in vivo, healthy, adult volunteers. The source says: Blood and urine were collected at pre-specified pre- and post-ingestion time points to measure D-xylose levels and to characterize the systemic absorption profiles of D-xylose. Phoenix® WinNonLin®, Version 6.2.1, was used for PK analyses. Serum D-xylose concentrations were summarized by cohort using nominal sample times according to actual amount received using summary statistics (n, coefficient of variation [CV], mean, standard deviation [SD], median, minimum, and maximum). Evidence for the occurrence of steady-state was assessed graphically by comparing the time course of either trough or 2-hour post-ingestion serum concentrations of D-xylose as different levels of D-xylose. Accumulation was assessed by comparing the 2-hour post-first-ingestion serum levels with those observed at Week 2 (Day 15) and Week 4 (Day 28). […] Urine PK parameters for D-xylose levels included Ae(0-t) (cumulative amount of sweetener recovered in urine) and percent sweetener amount excreted over a 5-hour period.

Data set [7] is described as follows: Normal human volunteer study of D-xylose: CRP, serum cytokines, T-cell markers. The data set is classed as in vivo, healthy, adult volunteers. The source says: Blood was collected at pre-specified pre- and post-ingestion time points to evaluate C-reactive protein (CRP), serum cytokines (tumor necrosis factor alpha [TNF-α], interleukin [IL]-2, IL-6, interferon gamma [IFN-γ], and IL-10), and T-cell markers CD3, CD4, CD8, CD25, and FOXP3. Plasma was also stored and may be tested for biomarkers and/or metabolic markers for up to 7 years.
Summary statistics (n, mean, standard deviation, median, minimum, and maximum) were presented for serum concentrations of CRP, flow cytometry T-cell markers (CD3, CD4, CD8, CD25, and FOXP3), and cytokines (TNF-α, IL-2, IL-6, IFN-γ, and IL-10) as per their nominal time points.

For the molecule Bifidobacterium, in the data set with tumors, the “responsiveness to checkpoint inhibitor therapy in cancer” value was “increases the responsiveness”.

`CN[C@H](CC(C)C)C(=O)N[C@H]1C(=O)N[C@@H](CC(N)=O)C(=O)N[C@H]2C(=O)N[C@H]3C(=O)N[C@H](C(=O)N[C@H](C(=O)O)c4cc(O)cc(O)c4-c4cc3ccc4O)[C@H](O)c3ccc(c(Cl)c3)Oc3cc2cc(c3O[C@@H]2O[C@H](CO)[C@@H](O)[C@H](O)[C@H]2O[C@H]2C[C@](C)(N)[C@H](O)[C@H](C)O2)Oc2ccc(cc2Cl)[C@H]1O` [vancomycin]: the “impact on the microbiome of the gut (PCA at family level, fecal samples)” value in data set [1] is reported as “strong impact on the microbiome of the gut”. Also, in [1] (po), the “day 0 to day 6 pattern in vaginal samples (PCA)” value is recorded as “showed an overall difference”.

As for Bacteroides, the “responsiveness to checkpoint inhibitor therapy in cancer” value in the data set with tumors is reported as “increases the responsiveness”.

As for B. luti [EPV3], the “intrinsic inflammatory activity (induction of pro-inflammatory cytokines) compared to EPV 8” value in data set [2] (bacterium alone, 24 h) is given as “relatively low intrinsic inflammatory activity”. Also, the “reduction of induction of pro-inflammatory cytokines by EPV 8, including IL-6, MCP-1, IL-12p70, IFNγ” value in data set [2] (combination with EPV 8, 24 h) is listed as “able to reduce”. Further, the “anti-inflammatory profile for a Th-1-driven condition such as GVHD” value in data set [2] is recorded as “significantly desirable anti-inflammatory profile”.

As for `C[C@H](O)[C@H](O)[C@@H](O)[C@@H](O)C=O` [rhamnose], the “augmentation (fermentation) of lactobacillus” value in the data set on Lactobacillus johnsonii is “not lactobacillus”. The “augmentation (fermentation) of blautia” value with blautia was “specifically augments blautia”.

Turning to Lactobacillus, the “responsiveness to checkpoint inhibitor therapy in cancer” value in the data set on tumors is given as “not”.

Turning to `CCN1CCN(c2cc3c(cc2F)c(=O)c(C(=O)O)cn3C2CC2)CC1` [enro, enrofloxacin, reference compound], the “serum endotoxin levels after antibiotic” value in the data set with serum endotoxin (0.25 g/L in drinking water day −7 to day −2, measured 2 days after a 5 day course (day 0)) is on record as “led to an increase in serum endotoxin levels”.

Regarding `CCC(=O)O` [propionate], the “numbers of Tregs in the large intestine” value in data set [3] is “restored normal numbers of Tregs”.

Regarding `CC(=O)O` [acetate], the “numbers of Tregs in the large intestine” value in [3] is “restored normal numbers of Tregs”.

As to `O=C[C@H](O)[C@@H](O)[C@H](O)CO` [D-xylose], in the data set on Lactobacillus johnsonii, the “augmentation (fermentation) of lactobacillus” value is reported as “not lactobacillus”. In addition, in data set [4], the “SAEs, severe AEs, subject deaths” value is “No SAEs, severe AEs, or subject deaths” and the tolerability result is on record as “well tolerated”. The “augmentation (fermentation) of blautia” value in the data set on blautia is given as “specifically augments blautia”. Further, in the data set with serum endotoxin (mouse, in vivo), the “basal levels of serum endotoxin” value is reported as “reduced these basal levels over time”, the “effect on increase in serum endotoxin level caused by cipro” value was “appeared to counteract the increase” and the “effect on increase in serum endotoxin level caused by enro” value was “but not enro”. Further, the “use as a carbon source by bacterial strains” value in data set [5] was “used as a carbon source by several bacterial strains”. Also, in the data set with GVHD, the “Blautia level in the intestinal flora” value is reported as “expansion of Blautia in the intestinal flora” and the GVHD related survival entry is “improved survival”. Besides, the “ingested amount recovered in urine within 5 hours post-ingestion” value in [6] (1 g TID cohort, Days 1, 15 and 28) is listed as “approximately 40%”. Further, the “serum D-xylose concentrations versus ingestion amount” value in data set [6] (1 to 15 g TID) is listed as “increased linearly with increasing ingestion amounts”. Moreover, the “accumulation ratio of serum D-xylose” value in data set [6] (Day 15, 15 mg TID cohort, variability high) is listed as “approximately 1.9 fold”. Also, the “accumulation ratio of serum D-xylose” value in data set [6] (Day 28, 15 g TID) is listed as 1.68. In addition, in data set [7] (2 g and 15 g D-xylose cohorts), the “levels of serum interferon gamma over time” value is “trend for reduced levels”. Moreover, in [7] (all cohorts of the sweetener), the “subjects with normal serum CRP at Baseline and at least 1 post-ingestion CRP value >2.9 mg/L” value is given as 8.3%.

Regarding B. wexlerae [EPV5], the “anti-inflammatory profile for a Th-1-driven condition such as GVHD” value in data set [2] is recorded as “suboptimal anti-inflammatory profile”.
